# Assay results as given in ChEMBL document CHEMBL4732086, “Targeting nuclear protein TDP-43 by cell division cycle kinase 7 inhibitors: A new therapeutic approach for amyotrophic lateral sclerosis” (Eur J Med Chem, 2021).
# The source made the active and inactive calls. No cut-off for these calls is given here.
# Columns and labels:
# [1] = molecular target: RAC-beta serine/threonine-protein kinase (Homo sapiens) (UniProt P31751); experiment: Inhibition of recombinant full length human His-tagged AKT2 using serine/threonine-06 peptide as substrate at 10 uM incubated for 60 mins in presence of ATP by Z'-LYTE assay
# [2] = molecular target: T1, Aurora kinase A (Homo sapiens) (UniProt O14965); experiment: Inhibition of recombinant human full length AURKA expressed in baculovirus expression system using Ser/Thr-01 peptide as substrate at 10 uM after 1 hr in presence of ATP by Z'LYTE assay
# T1 sequence (whole entry): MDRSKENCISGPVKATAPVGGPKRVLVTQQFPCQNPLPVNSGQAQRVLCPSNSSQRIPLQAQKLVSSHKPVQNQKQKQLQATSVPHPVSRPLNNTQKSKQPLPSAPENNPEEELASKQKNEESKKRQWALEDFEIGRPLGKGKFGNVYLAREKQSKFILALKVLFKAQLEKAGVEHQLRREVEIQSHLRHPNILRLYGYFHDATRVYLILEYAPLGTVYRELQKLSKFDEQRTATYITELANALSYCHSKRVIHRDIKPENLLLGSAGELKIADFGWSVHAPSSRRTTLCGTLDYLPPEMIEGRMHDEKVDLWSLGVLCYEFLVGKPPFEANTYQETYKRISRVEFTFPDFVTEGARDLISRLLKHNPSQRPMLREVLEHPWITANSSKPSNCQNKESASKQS
# [3] = molecular target: Glycogen synthase kinase-3 alpha (Homo sapiens) (UniProt P49840); experiment: Inhibition of recombinant human full length GST-tagged GSK3A expressed in baculovirus expression system using serine/threonine-09 peptide as substrate at 10 uM incubated for 60 mins in presence of ATP by Z'-LYTE assay
# [4] = molecular target: Mitogen-activated protein kinase 3 (Homo sapiens) (UniProt P27361); experiment: Inhibition of recombinant human full length GST-tagged MAPK3 expressed in Escherichia coli expression system using serine/threonine-03 peptide as substrate at 10 uM by Z'-LYTE assay; conditions: time 60.0 min
# Mitogen-activated protein kinase 3 (Homo sapiens), sequence (P27361 whole entry): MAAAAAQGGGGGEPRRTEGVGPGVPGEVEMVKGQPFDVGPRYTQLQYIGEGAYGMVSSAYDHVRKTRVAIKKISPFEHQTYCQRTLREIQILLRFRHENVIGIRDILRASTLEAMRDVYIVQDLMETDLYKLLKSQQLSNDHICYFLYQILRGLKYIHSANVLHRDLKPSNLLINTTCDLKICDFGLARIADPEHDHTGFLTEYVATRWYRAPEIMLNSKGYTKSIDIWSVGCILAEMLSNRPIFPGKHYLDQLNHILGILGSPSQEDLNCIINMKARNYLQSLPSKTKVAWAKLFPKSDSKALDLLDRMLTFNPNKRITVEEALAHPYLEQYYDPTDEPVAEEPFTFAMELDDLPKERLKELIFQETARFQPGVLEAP
# [5] = molecular target: Calcium/calmodulin-dependent protein kinase type II subunit alpha (Homo sapiens) (UniProt Q9UQM7); experiment: Inhibition of recombinant full length human His-tagged CAMK2alpha expressed in baculovirus expression system using serine/threonine-4 peptide as substrate at 10 uM incubated for 60 mins in presence of ATP by Z'-LYTE assay
# [6] = molecular target: Casein kinase I isoform alpha (Homo sapiens) (UniProt P48729); experiment: Inhibition of human CSNK1A1 expressed in baculovirus expression system using serine/threonine-11 peptide as substrate at 10 uM incubated for 60 mins in presence of ATP by Z'-LYTE assay
# Casein kinase I isoform alpha (Homo sapiens), sequence (P48729 2-337 limits assumed): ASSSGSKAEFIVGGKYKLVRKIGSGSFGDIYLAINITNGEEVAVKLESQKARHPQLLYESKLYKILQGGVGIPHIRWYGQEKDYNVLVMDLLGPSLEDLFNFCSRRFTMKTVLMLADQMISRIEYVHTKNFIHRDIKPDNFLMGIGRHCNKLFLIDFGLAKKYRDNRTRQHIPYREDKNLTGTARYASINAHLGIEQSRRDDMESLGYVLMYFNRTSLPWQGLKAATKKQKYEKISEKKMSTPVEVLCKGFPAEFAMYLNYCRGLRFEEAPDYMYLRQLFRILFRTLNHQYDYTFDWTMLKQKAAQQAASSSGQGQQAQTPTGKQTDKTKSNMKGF
# [7] = molecular target: Platelet-derived growth factor receptor alpha (Homo sapiens) (UniProt P16234); experiment: Inhibition of recombinant human GST-tagged PDGFRA expressed in baculovirus expression system using Tyr-04 peptide as substrate at 10 uM by Z'-LYTE assay; conditions: time 60.0 min
# Platelet-derived growth factor receptor alpha (Homo sapiens), sequence (P16234 whole entry): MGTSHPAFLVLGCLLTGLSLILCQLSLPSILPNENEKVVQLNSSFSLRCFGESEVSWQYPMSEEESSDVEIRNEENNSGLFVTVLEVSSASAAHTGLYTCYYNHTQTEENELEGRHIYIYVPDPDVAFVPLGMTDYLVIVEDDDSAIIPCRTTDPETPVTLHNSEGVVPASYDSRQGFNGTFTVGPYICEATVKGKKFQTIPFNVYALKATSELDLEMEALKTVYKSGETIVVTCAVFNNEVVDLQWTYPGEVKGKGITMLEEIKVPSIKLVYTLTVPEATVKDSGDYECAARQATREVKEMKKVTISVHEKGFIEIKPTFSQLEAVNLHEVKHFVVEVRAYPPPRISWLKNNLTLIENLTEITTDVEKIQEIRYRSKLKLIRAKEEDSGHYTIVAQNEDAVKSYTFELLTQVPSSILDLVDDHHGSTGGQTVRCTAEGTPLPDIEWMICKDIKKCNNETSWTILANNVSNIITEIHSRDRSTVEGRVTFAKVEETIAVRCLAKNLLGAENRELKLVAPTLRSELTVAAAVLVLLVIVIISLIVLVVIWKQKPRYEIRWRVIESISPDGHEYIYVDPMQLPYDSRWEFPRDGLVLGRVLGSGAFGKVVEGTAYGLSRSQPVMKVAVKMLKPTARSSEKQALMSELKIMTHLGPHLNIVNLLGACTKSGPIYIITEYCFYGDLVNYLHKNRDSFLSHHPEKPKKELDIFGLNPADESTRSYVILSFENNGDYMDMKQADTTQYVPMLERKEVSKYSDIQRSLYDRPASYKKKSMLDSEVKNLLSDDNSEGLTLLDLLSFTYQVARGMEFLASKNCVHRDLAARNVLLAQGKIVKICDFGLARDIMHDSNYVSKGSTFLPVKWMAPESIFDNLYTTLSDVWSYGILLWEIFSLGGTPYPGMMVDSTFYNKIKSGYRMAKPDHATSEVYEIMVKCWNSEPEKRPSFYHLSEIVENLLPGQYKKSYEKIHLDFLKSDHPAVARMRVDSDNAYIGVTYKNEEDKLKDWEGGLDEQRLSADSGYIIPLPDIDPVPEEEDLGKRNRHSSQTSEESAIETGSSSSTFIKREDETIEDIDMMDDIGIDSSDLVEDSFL
# [8] = molecular target: Receptor-type tyrosine-protein kinase FLT3 (Homo sapiens) (UniProt P36888); experiment: Inhibition of recombinant human His-tagged Flt3 expressed in baculovirus expression system using Tyr 02 peptide as substrate at 10 uM incubated for 60 mins in presence of ATP by Z'-LYTE assay
# Receptor-type tyrosine-protein kinase FLT3 (Homo sapiens), sequence (P36888 whole entry): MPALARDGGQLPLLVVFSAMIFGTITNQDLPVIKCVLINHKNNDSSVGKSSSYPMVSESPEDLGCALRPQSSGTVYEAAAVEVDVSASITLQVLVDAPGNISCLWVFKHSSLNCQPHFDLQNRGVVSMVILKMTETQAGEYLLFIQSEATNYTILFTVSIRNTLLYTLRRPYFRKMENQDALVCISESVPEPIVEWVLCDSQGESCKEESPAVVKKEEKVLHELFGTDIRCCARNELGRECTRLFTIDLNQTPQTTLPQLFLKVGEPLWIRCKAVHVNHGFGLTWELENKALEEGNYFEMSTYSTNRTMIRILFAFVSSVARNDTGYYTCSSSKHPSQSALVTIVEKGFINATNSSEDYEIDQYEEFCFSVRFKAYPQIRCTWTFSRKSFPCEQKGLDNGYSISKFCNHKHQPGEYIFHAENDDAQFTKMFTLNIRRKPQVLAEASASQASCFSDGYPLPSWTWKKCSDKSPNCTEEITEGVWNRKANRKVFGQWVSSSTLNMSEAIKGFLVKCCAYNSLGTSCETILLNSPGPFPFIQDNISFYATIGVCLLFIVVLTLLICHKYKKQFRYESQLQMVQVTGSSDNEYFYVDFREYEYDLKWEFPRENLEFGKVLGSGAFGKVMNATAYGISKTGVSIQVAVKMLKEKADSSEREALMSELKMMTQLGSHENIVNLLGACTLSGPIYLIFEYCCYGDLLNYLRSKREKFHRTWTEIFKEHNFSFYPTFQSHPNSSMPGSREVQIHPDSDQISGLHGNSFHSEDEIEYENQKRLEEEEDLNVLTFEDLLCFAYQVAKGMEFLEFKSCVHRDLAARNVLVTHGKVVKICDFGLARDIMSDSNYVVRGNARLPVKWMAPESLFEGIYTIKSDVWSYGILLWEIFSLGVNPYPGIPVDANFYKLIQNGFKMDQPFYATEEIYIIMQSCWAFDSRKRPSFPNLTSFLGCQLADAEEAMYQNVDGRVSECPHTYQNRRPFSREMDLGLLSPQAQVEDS
# [9] = molecular target: Mitogen-activated protein kinase 7 (Homo sapiens) (UniProt Q13164); experiment: Inhibition of recombinant human full length GST-tagged MAPK7 expressed in baculovirus expression system using serine/threonine-04 peptide as substrate at 10 uM by Z'-LYTE assay; conditions: time 60.0 min
# Mitogen-activated protein kinase 7 (Homo sapiens), sequence (Q13164 2-816 limits assumed): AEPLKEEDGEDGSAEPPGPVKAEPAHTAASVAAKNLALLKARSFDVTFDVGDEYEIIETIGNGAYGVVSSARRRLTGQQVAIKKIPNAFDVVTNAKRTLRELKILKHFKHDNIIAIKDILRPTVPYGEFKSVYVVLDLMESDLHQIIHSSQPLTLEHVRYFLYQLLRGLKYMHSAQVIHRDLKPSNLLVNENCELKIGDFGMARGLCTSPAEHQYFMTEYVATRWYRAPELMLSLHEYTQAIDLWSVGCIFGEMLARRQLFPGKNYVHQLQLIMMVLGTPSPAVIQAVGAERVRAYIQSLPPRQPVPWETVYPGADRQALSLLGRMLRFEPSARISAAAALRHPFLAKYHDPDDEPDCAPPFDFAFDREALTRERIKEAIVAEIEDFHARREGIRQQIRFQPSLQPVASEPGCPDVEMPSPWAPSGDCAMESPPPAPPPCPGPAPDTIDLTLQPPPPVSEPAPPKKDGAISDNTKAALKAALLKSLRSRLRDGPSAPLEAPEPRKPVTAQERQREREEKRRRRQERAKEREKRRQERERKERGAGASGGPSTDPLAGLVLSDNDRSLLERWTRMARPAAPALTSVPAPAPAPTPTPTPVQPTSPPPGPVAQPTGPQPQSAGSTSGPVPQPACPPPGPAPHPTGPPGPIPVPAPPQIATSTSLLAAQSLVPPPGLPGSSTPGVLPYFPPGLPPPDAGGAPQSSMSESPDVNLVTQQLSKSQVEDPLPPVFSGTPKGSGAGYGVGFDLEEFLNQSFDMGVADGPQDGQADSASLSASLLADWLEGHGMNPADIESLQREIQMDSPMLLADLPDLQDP
# [10] = molecular target: Serine/threonine-protein kinase MARK1 (Homo sapiens) (UniProt Q9P0L2); experiment: Inhibition of recombinant human full length GST-tagged MARK1 expressed in baculovirus expression system using serine/threonine-21 peptide as substrate at 10 uM by Z'-LYTE assay; conditions: time 60.0 min
# [11] = molecular target: Tyrosine-protein kinase Lck (Homo sapiens) (UniProt P06239); experiment: Inhibition of recombinant human His-tagged LCK expressed in baculovirus expression system using Tyr-02 peptide as substrate at 10 uM incubated for 60 mins in presence of ATP by Z'-LYTE assay
# [12] = molecular target: Tyrosine-protein kinase JAK2 (Homo sapiens) (UniProt O60674); experiment: Inhibition of recombinant human GST-tagged JAK2 expressed in baculovirus expression system using Tyr-06 peptide as substrate at 10 uM incubated for 60 mins in presence of ATP by Z'-LYTE assay
# Tyrosine-protein kinase JAK2 (Homo sapiens), sequence (O60674 whole entry): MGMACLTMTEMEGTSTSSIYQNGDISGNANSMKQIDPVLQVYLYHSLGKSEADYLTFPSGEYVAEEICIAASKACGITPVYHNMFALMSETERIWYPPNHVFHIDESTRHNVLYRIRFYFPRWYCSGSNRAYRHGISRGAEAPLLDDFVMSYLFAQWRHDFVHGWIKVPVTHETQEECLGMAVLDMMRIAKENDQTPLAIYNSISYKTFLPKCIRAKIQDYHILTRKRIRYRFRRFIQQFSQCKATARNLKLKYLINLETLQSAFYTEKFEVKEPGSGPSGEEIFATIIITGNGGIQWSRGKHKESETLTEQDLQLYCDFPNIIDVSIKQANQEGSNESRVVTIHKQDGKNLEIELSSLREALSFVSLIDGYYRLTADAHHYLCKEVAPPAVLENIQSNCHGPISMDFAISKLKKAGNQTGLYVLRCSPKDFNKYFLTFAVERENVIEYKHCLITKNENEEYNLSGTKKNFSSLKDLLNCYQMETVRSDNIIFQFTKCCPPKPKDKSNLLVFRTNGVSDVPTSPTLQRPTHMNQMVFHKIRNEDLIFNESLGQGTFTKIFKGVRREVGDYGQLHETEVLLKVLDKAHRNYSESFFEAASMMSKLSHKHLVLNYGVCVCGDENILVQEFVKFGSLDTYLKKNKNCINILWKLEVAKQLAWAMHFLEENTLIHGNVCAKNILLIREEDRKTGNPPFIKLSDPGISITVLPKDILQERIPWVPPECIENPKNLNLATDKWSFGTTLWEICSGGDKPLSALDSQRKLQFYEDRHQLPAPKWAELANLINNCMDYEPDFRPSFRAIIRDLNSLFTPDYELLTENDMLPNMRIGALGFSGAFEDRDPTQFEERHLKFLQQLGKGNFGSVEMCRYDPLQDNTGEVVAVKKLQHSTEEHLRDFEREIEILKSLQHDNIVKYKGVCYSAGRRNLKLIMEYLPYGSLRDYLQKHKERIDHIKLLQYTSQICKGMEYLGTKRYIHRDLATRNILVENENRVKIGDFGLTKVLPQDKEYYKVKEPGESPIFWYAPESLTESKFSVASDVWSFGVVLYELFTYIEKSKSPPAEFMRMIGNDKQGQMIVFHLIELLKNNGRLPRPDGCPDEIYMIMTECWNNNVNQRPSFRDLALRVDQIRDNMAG
# [13] = molecular target: Serine/threonine-protein kinase PAK 1 (Homo sapiens) (UniProt Q13153); experiment: Inhibition of recombinant human full length GST-tagged PAK1 expressed in baculovirus expression system using serine/threonine-19 peptide as substrate at 10 uM by Z'-LYTE assay; conditions: time 60.0 min
# [14] = molecular target: Serine/threonine-protein kinase pim-1 (Homo sapiens) (UniProt P11309); experiment: Inhibition of recombinant human HIS-tagged PIM1 expressed in baculovirus expression system using serine/threonine-07 peptide as substrate at 10 uM by Z'-LYTE assay; conditions: time 60.0 min
# Serine/threonine-protein kinase pim-1 (Homo sapiens), sequence (P11309 whole entry, looked up): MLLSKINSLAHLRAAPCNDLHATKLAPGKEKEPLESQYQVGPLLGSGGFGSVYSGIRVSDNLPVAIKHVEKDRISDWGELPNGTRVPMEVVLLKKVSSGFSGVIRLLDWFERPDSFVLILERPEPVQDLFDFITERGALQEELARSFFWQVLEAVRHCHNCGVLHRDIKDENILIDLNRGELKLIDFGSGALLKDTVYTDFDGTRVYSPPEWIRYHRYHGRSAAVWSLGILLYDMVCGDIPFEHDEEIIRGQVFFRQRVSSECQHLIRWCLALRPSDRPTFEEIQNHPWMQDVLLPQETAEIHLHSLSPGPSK
inhibition [1],inhibition [2],inhibition [3],inhibition [4],inhibition [5],inhibition [6],inhibition [7],inhibition [8],inhibition [9],inhibition [10],inhibition [11],inhibition [12],inhibition [13],inhibition [14],Compound
inactive,inactive,inactive,inactive,inactive,inactive,inactive,inactive,inactive,inactive,inactive,inactive,inactive,inactive,Clc1cccc(CSc2ncnc3[nH]cnc23)c1
inactive,inactive,inactive,inactive,inactive,inactive,inactive,inactive,inactive,inactive,inactive,inactive,inactive,inactive,c1ccc(CSc2ncnc3[nH]cnc23)cc1

Compound,inhibition [1],inhibition [2],inhibition [3],inhibition [4],inhibition [5],inhibition [6],inhibition [7],inhibition [8],inhibition [9],inhibition [10],inhibition [11],inhibition [12],inhibition [13],inhibition [14]
Brc1ccccc1CSc1ncnc2[nH]cnc12,inactive,inactive,inactive,inactive,inactive,inactive,inactive,inactive,inactive,inactive,inactive,inactive,inactive,inactive
